Test results as given in article PMC7754465, “Multiparameter Kinetic Analysis for Covalent Fragment Optimization by Using Quantitative Irreversible Tethering (qIT)” (Chembiochem, 2020).

Target: His-Cdk2(F80C,C177A,D145N) (Homo sapiens, UniProt P24941, C177A/D145N/F80C)
Assay: qIT assay with His-Cdk2(F80C,C177A,D145N)
Assay type: binding
Settings: acrylamide 69 0.5 mM, thiol 5 µM
Experimental: site that is normally occupied by the adenosine core of ATP. Indeed, the methyl ester engages in a hydrogen-bonding interaction with the backbone amide of Leu83, mimicking the pyrimidine pharmacophore of ATP, while the acrylamide carbonyl itself is hydrogen bonded to the ε-amine of Lys32.
Next the 57-Cdk2(F80C,C177A) conjugate was prepared and crystallised by heterogeneous microseeding in an analogous manner. This complex diffracted to 2.0 GS H Å […]
Although acrylamide Cdk2(F80C,C177A,D145N) 57 could be O […]
modelled into the electron density map with a cov1.25 alent bond to Cys80, the ligand-binding mode was less clearly defined (Figure 72b). It is postulated that either the ligand binds in N […]
multiple unresolved modes or that the protein was not fully modified such that the ligand 69 […]
clin A2 to form active holoenzymes. The holoenzymes were incubated with peptide substrate, ATP, NADH, PEP, LD and PK Tim e ( h) ! at 37 °C and the absorbance measured over time in clear 384-well plates. Kinase activity is determined from the gradient of Figure the absorbance over time (between 100084. Fluorescence data (normalised against DMSO –3000 s) and normalised relative to pCdk2(WT) = 100% and cyclin A2 only = 0% (n = control) from qIT assay for acrylamide […]
glutathione (5 µM). Vertical error bars represent the standard deviation of fluorogenic thiol quantifications, performed in duplicate. […]

## C=CC(=O)N1CCN(CC)c2ccccc21 [compound 6]
  k, thiol Cdk2(F80C,C177A,D145N): 0.23 h–1
